Test results reported in ChEMBL document CHEMBL4765454, “Betulinic acid derived amides are highly cytotoxic, apoptotic and selective” (Eur J Med Chem, 2020).

Assays:
HT-29 = experiment: Cytotoxicity against human HT-29 cells assessed as reduction in cell viability incubated for 72 hrs by SRB assay; format: functional, cell-based
NIH3T3 = experiment: Cytotoxicity against mouse NIH3T3 cells assessed as reduction in cell viability incubated for 72 hrs by SRB assay; format: cell-based
MCF7 = experiment: Cytotoxicity against human MCF7 cells assessed as reduction in cell viability incubated for 72 hrs by SRB assay; format: functional, cell-based
FaDu = experiment: Cytotoxicity against human FaDu cells assessed as reduction in cell viability incubated for 72 hrs by SRB assay; format: functional, cell-based
[1] = Selectivity ratio of EC50 for mouse NIH3T3 cells to EC50 for human MCF7 cells; format: toxicity; settings: NIH3T3 cells versus MCF7 cells, read-out: Ratio EC50
A-375 = experiment: Cytotoxicity against human A-375 cells assessed as reduction in cell viability incubated for 72 hrs by SRB assay; format: functional, cell-based
A2780 = experiment: Cytotoxicity against human A2780 cells assessed as reduction in cell viability incubated for 72 hrs by SRB assay; format: functional, cell-based
[2] = Selectivity ratio of EC50 for mouse NIH3T3 cells to EC50 for human A2780 cells; format: toxicity; settings: NIH3T3 cells versus A2780 cells, read-out: Ratio EC50
[3] = Selectivity ratio of EC50 for mouse NIH3T3 cells to EC50 for human HT-29 cells; format: toxicity; settings: NIH3T3 cells versus HT-29 cells, read-out: Ratio EC50
[4] = Selectivity ratio of EC50 for mouse NIH3T3 cells to EC50 for human FaDu cells
[5] = Selectivity ratio of EC50 for mouse NIH3T3 cells to EC50 for human A375 cells; format: toxicity; settings: NIH3T3 cells versus A375 cells, read-out: Ratio EC50
[6] = Homo sapiens, HT-29, 72 h, read-out: EC50
[7] = Mus musculus, NIH3T3, 72 h, read-out: EC50
[8] = Homo sapiens, MCF7, 72 h, read-out: EC50
[9] = Homo sapiens, FaDu, 72 h, read-out: EC50
[10] = Homo sapiens, A-375, 72 h, read-out: EC50
[11] = Homo sapiens, A2780, 72 h, read-out: EC50

Row | SMILES | EC50 (HT-29; [6]) [µM] | EC50 (NIH3T3; [7]) [µM] | EC50 (MCF7; [8]) [µM] | EC50 (FaDu; [9]) [µM] | selectivity ratio [1] | EC50 (A-375; [10]) [µM] | EC50 (A2780; [11]) [µM] | selectivity ratio [2] | selectivity ratio [3] | Ratio EC50 [4] | selectivity ratio [5] | EC50 (HT-29; ht-29) | EC50 (MCF7; mcf7) | EC50 (FaDu; fadu) | EC50 (NIH3T3; nih3t3) | EC50 (A-375; a-375) | EC50 (A2780; a2780)
1 | COc1cccc2c1C(=O)c1c(O)c3c(c(O)c1C2=O)C[C@@](O)(C(=O)CO)C[C@@H]3O[C@H]1C[C@H](N)[C@H](O)[C@H](C)O1 [DOXORUBICIN] | > 30 | 1.3 | – | – | – | – | – | – | – | – | – | – | – | – | – | – | –
2 | CC(=O)O[C@H]1CC[C@]2(C)[C@H]3CC[C@@H]4[C@H]5[C@H](C(C)=O)CC[C@]5(C(=O)Nc5cncc6ccccc56)CC[C@@]4(C)[C@]3(C)CC[C@H]2C1(C)C | > 30 | > 30 | 9.34 | 7.67 | 3.2 | 5.66 | 7.84 | 3.8 | 1 | 3.9 | – | – | – | – | – | – | –
3 | C=C(C)[C@@H]1CC[C@]2(C(=O)Nc3cccc4ncccc34)CC[C@]3(C)[C@H](CC[C@@H]4[C@@]5(C)CC[C@H](OC(C)=O)C(C)(C)[C@@H]5CC[C@]43C)[C@@H]12 | > 30 | > 30 | 12.1 | 5.18 | 2.5 | 3.05 | 5.08 | 5.9 | 1 | 5.8 | – | – | – | – | – | – | –
4 | C=C(C)[C@@H]1CC[C@]2(C(=O)O)CC[C@]3(C)[C@H](CC[C@@H]4[C@@]5(C)CC[C@H](OC(C)=O)C(C)(C)[C@@H]5CC[C@]43C)[C@@H]12 | 21.3 | > 30 | – | 7.2 | 2.7 | 19.2 | – | 1.6 | 1.4 | 4.2 | 1.6 | – | – | – | – | – | –
5 | C=C(C)[C@@H]1CC[C@]2(C(=O)Nc3cncc4ccccc34)CC[C@]3(C)[C@H](CC[C@@H]4[C@@]5(C)C[C@H](OC(C)=O)[C@H](OC(C)=O)C(C)(C)[C@@H]5CC[C@]43C)[C@@H]12 | > 15 | > 30 | 7.33 | 4.02 | 4.1 | 3.34 | 4.76 | 6.3 | 2 | 7.5 | – | – | – | – | – | – | –
6 | CC(=O)[C@@H]1CC[C@]2(C(=O)O)CC[C@]3(C)[C@H](CC[C@@H]4[C@@]5(C)CC[C@H](O)C(C)(C)[C@@H]5CC[C@]43C)[C@@H]12 [PLATANIC ACID] | > 30 | > 30 | > 30 | > 30 | – | > 30 | > 30 | – | – | – | – | – | – | – | – | – | –
7 | CC(=O)O[C@H]1CC[C@]2(C)[C@H]3CC[C@@H]4[C@H]5[C@H](C(C)=O)CC[C@]5(C(=O)NCc5ccccc5)CC[C@@]4(C)[C@]3(C)CC[C@H]2C1(C)C | – | – | – | – | – | – | – | – | – | – | – | Nd(Insoluble) | Nd(Insoluble) | Nd(Insoluble) | Nd(Insoluble) | Nd(Insoluble) | Nd(Insoluble)
8 | CC(=O)[C@@H]1CC[C@]2(C(=O)O)CC[C@]3(C)[C@H](CC[C@@H]4[C@@]5(C)C=C(O)C(=O)C(C)(C)[C@@H]5CC[C@]43C)[C@@H]12 | > 30 | > 30 | 24.8 | > 30 | – | > 30 | 20.6 | – | – | – | – | – | – | – | – | – | –
9 | C=C(C)[C@@H]1CC[C@]2(C(=O)O)CC[C@]3(C)[C@H](CC[C@@H]4[C@@]5(C)CC[C@H](O)C(C)(C)[C@@H]5CC[C@]43C)[C@@H]12 [BETULINIC ACID] | > 30 | > 30 | > 30 | > 30 | – | > 30 | > 30 | – | – | – | – | – | – | – | – | – | –
10 | C=C(C)[C@@H]1CC[C@]2(C(=O)O)CC[C@]3(C)[C@H](CC[C@@H]4[C@@]5(C)CCC(=O)C(C)(C)[C@@H]5CC[C@]43C)[C@@H]12 [BETUNOLIC ACID] | 18.5 | 19.4 | 12 | 17.4 | – | 14.3 | 4.7 | – | – | – | – | – | – | – | – | – | –
11 | CC(=O)O[C@H]1C[C@]2(C)[C@H]3CC[C@@H]4[C@H]5[C@H](C(C)=O)CC[C@]5(C(=O)Nc5cccc6ncccc56)CC[C@@]4(C)[C@]3(C)CC[C@H]2C(C)(C)[C@H]1OC(C)=O | – | – | – | – | – | – | – | – | – | – | – | Nd(Insoluble) | Nd(Insoluble) | Nd(Insoluble) | Nd(Insoluble) | Nd(Insoluble) | Nd(Insoluble)
12 | C=C(C)[C@@H]1CC[C@]2(C(=O)O)CC[C@]3(C)[C@H](CC[C@@H]4[C@@]5(C)C=C(O)C(=O)C(C)(C)[C@@H]5CC[C@]43C)[C@@H]12 | 26.1 | 12.8 | 12 | 14.1 | 1.1 | 13.8 | 10.5 | 1.2 | 0.5 | 0.9 | 0.9 | – | – | – | – | – | –
13 | C=C(C)[C@@H]1CC[C@]2(C(=O)O)CC[C@]3(C)[C@H](CC[C@@H]4[C@@]5(C)C[C@H](OC(C)=O)[C@H](OC(C)=O)C(C)(C)[C@@H]5CC[C@]43C)[C@@H]12 | 17.4 | 14.1 | 11.2 | 13.5 | 1.3 | 15.8 | 8.68 | 1.6 | 0.8 | 1 | 0.9 | – | – | – | – | – | –
14 | CC(=O)O[C@H]1C[C@]2(C)[C@H]3CC[C@@H]4[C@H]5[C@H](C(C)=O)CC[C@]5(C(=O)O)CC[C@@]4(C)[C@]3(C)CC[C@H]2C(C)(C)[C@H]1OC(C)=O | > 30 | 9.57 | > 30 | > 30 | 0.3 | 22.5 | > 30 | 0.3 | 0.3 | 0.3 | 0.4 | – | – | – | – | – | –
15 | CC(=O)O[C@H]1C[C@]2(C)[C@H]3CC[C@@H]4[C@H]5[C@H](C(C)=O)CC[C@]5(C(=O)Nc5cncc6ccccc56)CC[C@@]4(C)[C@]3(C)CC[C@H]2C(C)(C)[C@H]1OC(C)=O | 18.4 | > 30 | 6.96 | 6.41 | 4.3 | 4.88 | 6.15 | 4.9 | 1.6 | 4.7 | – | – | – | – | – | – | –
16 | CC(=O)O[C@H]1CC[C@]2(C)[C@H]3CC[C@@H]4[C@H]5[C@H](C(C)=O)CC[C@]5(C(=O)Nc5cccc6ncccc56)CC[C@@]4(C)[C@]3(C)CC[C@H]2C1(C)C | > 30 | > 30 | 7.06 | 6.42 | 4.3 | 4.6 | 5.4 | 5.6 | 1 | 4.7 | – | – | – | – | – | – | –
17 | C=C(C)[C@@H]1CC[C@]2(C(=O)NCc3ccccc3)CC[C@]3(C)[C@H](CC[C@@H]4[C@@]5(C)CC[C@H](OC(C)=O)C(C)(C)[C@@H]5CC[C@]43C)[C@@H]12 | > 30 | > 30 | 26.8 | 9.59 | 1.1 | 4.05 | 6.29 | 4.8 | 1 | 3.1 | – | – | – | – | – | – | –
18 | CC(=O)[C@@H]1CC[C@]2(C(=O)O)CC[C@]3(C)[C@H](CC[C@@H]4[C@@]5(C)CCC(=O)C(C)(C)[C@@H]5CC[C@]43C)[C@@H]12 | > 30 | > 30 | > 30 | > 30 | – | > 30 | > 30 | – | – | – | – | – | – | – | – | – | –
19 | CC(=O)O[C@H]1CC[C@]2(C)[C@H]3CC[C@@H]4[C@H]5[C@H](C(C)=O)CC[C@]5(C(=O)O)CC[C@@]4(C)[C@]3(C)CC[C@H]2C1(C)C | > 30 | > 30 | > 30 | > 30 | – | > 30 | > 30 | – | – | – | – | – | – | – | – | – | –
20 | CC(=O)[C@@H]1CC[C@]2(C(=O)O)CC[C@]3(C)[C@H](CC[C@@H]4[C@@]5(C)C[C@H](O)[C@H](O)C(C)(C)[C@@H]5CC[C@]43C)[C@@H]12 | > 30 | > 30 | > 30 | > 30 | – | > 30 | > 30 | – | – | – | – | – | – | – | – | – | –
21 | CC(=O)O[C@H]1C[C@]2(C)[C@H]3CC[C@@H]4[C@H]5[C@H](C(C)=O)CC[C@]5(C(=O)NCc5ccccc5)CC[C@@]4(C)[C@]3(C)CC[C@H]2C(C)(C)[C@H]1OC(C)=O | 7.22 | > 30 | 5.2 | 5.57 | 5.8 | 2.9 | 2.36 | 12.7 | 4.2 | 5.4 | – | – | – | – | – | – | –
